“Also recorded” adds a separate entry of the source.
What was measured:
[1] = tested on: C. davidsoni; experiment: GC-EAD of beetle antennae to Pichia kluyveri headspace volatiles; conditions: female and male adults, P. kluyveri headspace volatiles
From the text: FIG. 6. GC-EAD responses of female (♀) and male (♂) C. davidsoni adults to headspace volatiles (black, FID chromatogram) of the fruit yeast Pichia kluyveri. […] IS=Internal standard, IS1=n-octane, IS2=Nonyl acetate.

[2] = Gravimetric release rate and longevity of lure constituents in LDPE sachets; assay type: physicochemical; conditions: for Est. long. / Release rate: compound on wick in LDPE sachet, thickness, size, load per Table 1
Description: The release rates of co-attractant components formulated in low density polyethylene (LDPE) sachets were investigated (FIG. 1).
The release rate and theoretical longevity of the lure constituents in sachets were tested in gravimetric experiments. Data were used to determine the optimal sachet thickness, size (surface area) and estimated longevity of individual components (FIG. 2).
A fixed volume (1 ml) of each lure constituent was individually loaded in 50 cm 2 of different thicknesses (50, 100, 150 and 200 μm). Sachets were weighed daily for the first 5 days and later at greater time intervals. Release rates of the compounds through different sachet thicknesses were inferred using sachet weight loss over time (FIG. 2). Only the linear part of the weight loss curve was considered in the calculations of release rates. The maximum estimated longevity was deduced from the calculated release rate and corrected based on adjusted sachet size and volume of chemical loaded.

[3] = Release of compounds from the commercial co-attractant solution; assay type: physicochemical; conditions: for Release rate (commercial solution): compound in commercial co-attractant solution; for duration of release in the current solution: current co-attractant solution
[4] = Sachet size, thickness, release rate and lure longevity studies (Table 3, based on GC-MS analysis); assay type: physicochemical; conditions: for Est. long. / Release rate: LDPE sachet per Table 3, based on GC-MS analysis
Description: Studies determining optimal sachet size and thickness, lure concentration, release rates and lure longevity were performed as described in Table 3.

[5] = tested on: Carpophilus truncatus; experiment: Cage dual-choice bioassay, co-attractant with one ingredient suppressed; assay type: in vivo; conditions: for attractiveness of commercial co-attractant in the absence of the compound / role of the compound: test solution lacking one ingredient vs CL in 45% ethanol, fifty beetles
Description: FIG. 9. Boxplots representing the results of lab-conducted cage dual-choice assays on Carpophilus truncatus responses to odours. Between 50 and 100 beetles were simultaneously exposed to a solution of co-attractant […] one ingredient at a time was suppressed (treatments). The attraction index was calculated as follows: (number of beetles in test solution−number of beetles in control)/(total number of beetles). […] Line in the boxplots correspond to the median, top and bottom of the boxplots represent the 75th and 25th percentiles respectively while error bars depict the 5th and 95th percentiles. White dots are outliers. n correspond to the replication of each experiments. p values result from paired t-tests and stars indicate the level of statistical significance.
Fifty beetles were simultaneously exposed to a solution of co-attractant (control) and a solution of co-attractant from which one additive at a time was suppressed (treatments, see table 4). The attraction index was calculated as follows: (number of beetles in test solution—number of beetles in control)/(total number of beetles).

[6] = tested on: C. davidsoni; experiment: Field trial of synthetic blends in peach orchard (Example 6); assay type: in vivo; conditions: CL+2PA, CL+IA, CL+IA+2PA vs CL; five weeks, N=6
From the text: C. davidsoni catches using prototype co-attractant solutions in a stone fruit orchard (Shepparton, VIC). CL corresponds to the control (original Carpophilus Lure co-attractant), CL+IA (co-attractant+Isopentyl Acetate), CL+PA (co-attractant+2-Phenethyl acetate) and CL+IA+PA (co-attractant+Isopentyl Acetate+2-Phenethyl acetate). […] Number of replicates per treatment N=6.
Synthetic blends consisting of the combination of the existing carpophilus lure with two new potential yeast attractants; namely Isopentyl acetate and 2-phenylethyl acetate; were formulated based on their respective ratio to ethyl acetate (Table 2) and tested in the field.
Field trials were conducted in a peach orchard in Invergordon (Victoria). Treatments included the original carpophilus lure (CL: control), the original lure combined with Isopentyl acetate (CL+IA) or with 2-phenylethylacetate (CL+2PA) or both (CL+IA+2PA). Six replicates of each odour blend were placed in black funnel traps held on pickets at 1.5 m height, arranged in randomized transects. Beetles were collected and synthetic blends replaced weekly over a 5-week period.
These compounds were tested either separately or together in the existing Carpophilus co-attractant and compared with the original co-attractant in the field. The trial was conducted over a five week period during which the beetles were collected and the lure solutions renewed weekly.

[7] = tested on: C. truncatus; experiment: GC-EAD responses to W. rabaulensis odour; conditions: W. rabaulensis headspace odour
Description: FIG. 10. […] 1-Acetaldehyde. 2-Ethanol. 3-Isobutanol. 4-Isopentyl alcohol. 5-2-Methyl butanol. 6-Isobutyl acetate. 7-Isopentyl acetate.
As co-attractants are derived from microbial odours, beetle attraction towards yeast odours isolated from the insect's gut was tested (Farrukh Baig, PhD thesis, 2020). […] Synthetic blends of the yeast odours were developed and field tested.

Row | SMILES | GC-EAD antennal response [1] | Est. long. [2] | Release rate [2] [mg/day] | Release rate (commercial solution) [3] [mg/day] | Est. long. [4] | Release rate [4] [mg/day] | attractiveness of commercial co-attractant in the absence of the compound / role of the compound [5] | further results
1 | CC(=O)OCc1ccco1 [2-furanmethanol acetate] | consistent physiological responses |  |  |  |  |  |  | 
2 | CC=O [acetaldehyde] |  | 7 days | 50 | 43 | 40 days | 50 | tend to act as an attractant | duration of release when applied in sachets ([2]; LDPE sachets): 1 week; duration of release in the current solution [3]: 1 days
3 | CC(C)CCO [Isopentyl alcohol] | consistent physiological responses | 300 days | 3.4 | 3.3 | 300 days | 3.4 | significantly less attractive | effect of increased concentrations on lure efficacy ([5]; further cage bioassay experiments): increase in lure efficacy
4 | CCOC(C)=O [ethyl acetate] | consistent physiological responses | 15 days | 136 | 110 | 15 days | 136 | seem to not influence | duration of release when applied in sachets ([2]; LDPE sachets): 1 week; duration of release in the current solution [3]: 1 days
5 | CCC1CCC(=O)O1 (stereo not shown) [γ-caprolactone] | consistent physiological responses |  |  |  |  |  |  | 
6 | CCCCCCCC(=O)OCC [Ethyl octanoate] | consistent physiological responses |  |  |  |  |  |  | 
7 | CCC(=O)OCCc1ccccc1 [2-phenylethylpropionate] | consistent physiological responses |  |  |  |  |  |  | 
8 | CC(=O)OCc1ccccc1 [Phenylmethyl acetate] | consistent physiological responses |  |  |  |  |  |  | 
9 | CC(=O)OCCC(C)C [Isopentyl acetate] | consistent physiological responses; also recorded: strong sensitivity |  |  |  |  |  |  | effect on beetle capture of adding the compound to the original co-attractant (CL) [6]: reduce lure attractiveness; antennal responses (GC-EAD) [7]: strong antennal responses
10 | CCO [ethanol] |  |  |  |  |  |  | significantly less attractive | permeation through the LDPE layers ([2]; LDPE sachets): limited permeation; maximum release rate achievable with thin sachets ([2]; thin LDPE sachets, lab experiments): ~25 mg/day; ethanol emission rates in the commercial lure ([3]; commercial lure): 2.5 g/day
11 | CC(=O)OCCc1ccccc1 [2-phenylethylacetate] | consistent physiological responses |  |  |  | 70+ days | 28 |  | longevity in sachets ([4]; dispensed in sachets): over 70 days; GC-EAD antennal response ([1]; listed as 2-phenethyl acetate): strong sensitivity; effect on beetle capture of adding the compound to the original co-attractant (CL) [6]: significantly more beetles
12 | CC(C)CO [Isobutyl alcohol] | consistent physiological responses | 200+ days | 4.9 | 2.9 | 200+ days | 4.9 | seem to not influence | 
13 | CCCOC(C)=O [Propyl acetate] | consistent physiological responses |  |  |  |  |  |  | 
14 | CC(=O)OCC(C)C [Isobutyl acetate] | consistent physiological responses |  |  |  |  |  |  | antennal responses (GC-EAD) [7]: strong antennal responses
15 | CCCCOC(C)=O [Butyl acetate] | consistent physiological responses |  |  |  |  |  |  | 
16 | CCC(C)CO (stereo not shown) [2-methyl-butanol] | consistent physiological responses | 200+ days | 4.3 | 0.6 | 200+ days | 4.3 | significantly more attractive | 

From patent US20240023534A1, “Devices, Compositions and Methods for Insect Control” (Agriculture Victoria Services PTY LTD, priority 2020, published 2024)
